Results on twelve compounds are retold here after patent US11229623B2 (GlaxoSmithKline Intellectual Property (No.2) Limited, priority 2016, dated 2022).

Molecules are shown by their SMILES.

The test deals with T1, human TRPV4 (Homo sapiens, UniProt Q9HBA0).
T1 construct: expressed in transfected cells; host or cells: BHK/AC9 cells transduced with BacMam virus
T1 sequence (Q9HBA0 whole entry): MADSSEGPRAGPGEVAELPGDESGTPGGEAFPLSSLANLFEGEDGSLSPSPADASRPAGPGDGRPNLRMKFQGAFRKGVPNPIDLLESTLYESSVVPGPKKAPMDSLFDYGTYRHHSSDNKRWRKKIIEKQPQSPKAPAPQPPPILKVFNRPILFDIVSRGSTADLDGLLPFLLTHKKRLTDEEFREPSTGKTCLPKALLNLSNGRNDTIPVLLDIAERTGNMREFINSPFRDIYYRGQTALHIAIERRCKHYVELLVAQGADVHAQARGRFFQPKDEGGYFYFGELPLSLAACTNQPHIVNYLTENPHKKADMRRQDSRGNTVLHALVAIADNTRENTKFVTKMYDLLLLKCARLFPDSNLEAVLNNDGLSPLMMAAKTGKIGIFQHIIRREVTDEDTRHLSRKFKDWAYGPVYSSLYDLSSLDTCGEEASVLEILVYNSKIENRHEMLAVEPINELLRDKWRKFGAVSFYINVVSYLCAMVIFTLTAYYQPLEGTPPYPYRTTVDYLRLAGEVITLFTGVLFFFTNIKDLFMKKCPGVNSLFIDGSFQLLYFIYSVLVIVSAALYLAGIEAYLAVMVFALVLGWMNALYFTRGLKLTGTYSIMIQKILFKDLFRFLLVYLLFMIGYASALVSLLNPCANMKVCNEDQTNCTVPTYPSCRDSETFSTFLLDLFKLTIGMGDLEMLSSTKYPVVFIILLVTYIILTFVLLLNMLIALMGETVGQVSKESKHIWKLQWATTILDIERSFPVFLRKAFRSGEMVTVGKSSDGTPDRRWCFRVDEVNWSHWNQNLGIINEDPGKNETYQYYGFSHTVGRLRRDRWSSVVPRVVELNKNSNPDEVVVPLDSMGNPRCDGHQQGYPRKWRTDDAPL
Nature of the test: FLIPR assay for hTRPV4 expressed in BHK cells: inhibition of Agonist Compound-induced calcium signal. In kind it is cell-based. The conditions noted are these: hTRPV4 in BHK/AC9 cells, FLIPR calcium signal, agonist at EC80; reported as range class; read-out: IC50. A digest of the protocol:
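BHK/AC9 cells transduced with BacMam human TRPV4 (MOI 78), plated 15,000 per well and cultured 24 h at 37° C. Loaded with 2 μM Fluo-4 AM plus 500 μM Brilliant Black in HBSS for 1-1.5 h at room temperature in the dark; intracellular calcium signal read by FLIPR fluorescence.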
On to `N#Cc1ccc(O[C@H]2CN(S(=O)(=O)c3c(Cl)cc(C(F)(F)F)cc3Cl)C[C@@]2(O)CO)cc1F` [Example 96, 4-(((3S,4R)-1-((2,6-dichloro-4-(trifluoromethyl)phenyl)sulfonyl)-4-hydroxy-4-(hydroxymethyl)pyrrolidin-3-yl)oxy)-2-fluorobenzonitrile], for which the IC50 was in the range of 10 to 100 nM. As to `N#Cc1ccc(S(=O)(=O)N2C[C@H](Oc3ccc(C#N)c(F)c3)[C@](O)(CO)C2)c(Cl)c1` [Example 97, 4-(((3S,4R)-1-((2-chloro-4-cyanophenyl)sulfonyl)-4-hydroxy-4-(hydroxymethyl)pyrrolidin-3-yl)oxy)-2-fluorobenzonitrile], the IC50 fell in the range of 0.1 to 10 nM.

With `N#Cc1ccc(O[C@H]2CN(S(=O)(=O)c3ccc(C(F)F)cc3)C[C@@]2(O)CO)cc1F` [Example 98, 4-(((3S,4R)-1-((4-(difluoromethyl)phenyl)sulfonyl)-4-hydroxy-4-(hydroxymethyl)pyrrolidin-3-yl)oxy)-2-fluorobenzonitrile], the IC50 is 10 to 100 nM. Take `N#Cc1ccc(O[C@H]2CN(S(=O)(=O)c3ccc(Br)nc3)C[C@@]2(O)CO)cc1F` [Example 99, 4-(((3S,4R)-1-((6-bromopyridin-3-yl)sulfonyl)-4-hydroxy-4-(hydroxymethyl)pyrrolidin-3-yl)oxy)-2-fluorobenzonitrile]: the IC50 fell in the range of 10 to 100 nM. As for `N#Cc1ccc(O[C@H]2CN(S(=O)(=O)c3ccc(C(F)(F)F)nc3Cl)C[C@@]2(O)CO)cc1F` [Example 100, 4-(((3S,4R)-1-((2-chloro-6-(trifluoromethyl)pyridin-3-yl)sulfonyl)-4-hydroxy-4-(hydroxymethyl)pyrrolidin-3-yl)oxy)-2-fluorobenzonitrile], the concentration for half-maximal inhibition (IC50) lay within 0.1 to 10 nM.

In the case of `N#Cc1ccc(O[C@H]2CN(S(=O)(=O)c3ccc(Cl)cc3)C[C@@]2(O)CO)cc1F` [Example 101, 4-(((3S,4R)-1-((4-chlorophenyl)sulfonyl)-4-hydroxy-4-(hydroxymethyl)pyrrolidin-3-yl)oxy)-2-fluorobenzonitrile], the IC50 fell in the range of 10 to 100 nM. To `N#Cc1ccc(O[C@H]2CN(S(=O)(=O)c3ccc(Br)cc3)C[C@@]2(O)CO)cc1F` [Example 102, 4-(((3S,4R)-1-((4-bromophenyl)sulfonyl)-4-hydroxy-4-(hydroxymethyl)pyrrolidin-3-yl)oxy)-2-fluorobenzonitrile] belongs 10 to 100 nM; to `N#Cc1ccc(O[C@H]2CN(S(=O)(=O)c3ccc(I)cc3)C[C@@]2(O)CO)cc1F` [Example 103, 2-fluoro-4-(((3S,4R)-4-hydroxy-4-(hydroxymethyl)-1-((4-iodophenyl)sulfonyl)pyrrolidin-3-yl)oxy)benzonitrile], 10 to 100 nM. Consider `COc1cc(C#N)ccc1S(=O)(=O)N1C[C@H](Oc2ccc(C#N)c(F)c2)[C@](O)(CO)C1` [Example 104, 4-(((3S,4R)-1-((4-cyano-2-methoxyphenyl)sulfonyl)-4-hydroxy-4-(hydroxymethyl)pyrrolidin-3-yl)oxy)-2-fluorobenzonitrile], for which the IC50 is 10 to 100 nM. As for `N#Cc1ccc(O[C@H]2CN(S(=O)(=O)c3ccc(Br)cn3)C[C@@]2(O)CO)cc1F` [Example 105, 4-(((3S,4R)-1-((5-bromopyridin-2-yl)sulfonyl)-4-hydroxy-4-(hydroxymethyl)pyrrolidin-3-yl)oxy)-2-fluorobenzonitrile], the IC50 lay within 10 to 100 nM. With `N#Cc1ccc(S(=O)(=O)N2C[C@H](Oc3ccc(Cl)cc3)[C@](O)(CO)C2)c(Cl)c1` [Example 106, 3-chloro-4-(((3R,4S)-4-(4-chlorophenoxy)-3-hydroxy-3-(hydroxymethyl)pyrrolidin-1-yl)sulfonyl)benzonitrile] the figure was 0.1 to 10 nM; with `N#Cc1ccccc1S(=O)(=O)N1C[C@H](Oc2ccc(Cl)cc2)[C@](O)(CO)C1` [Example 107, 2-(((3R,4S)-4-(4-chlorophenoxy)-3-hydroxy-3-(hydroxymethyl)pyrrolidin-1-yl)sulfonyl)benzonitrile], 10 to 100 nM.

The term IC50 denotes the point on the concentration scale where inhibition reaches its midpoint.
